From patent publication US11000506B2, “Envenomation therapies and related pharmaceutical compositions, systems and kits” (OPHIREX, INC, priority 2014, dated 2021)
Where a SMILES comes first, the peptide text is derived from it.

Legend:
Format in all cases: biochemical
[1] = system: C. atrox venom MP; assay: HTS for inhibitors of C. Atrox venom MP; details: compounds approximately 10 μM/well
Experimental: (§1) Background. Phospholipase A2 (PLA2) catalyzes the hydrolysis of phospholipids at the sn-2 position yielding a free fatty acid and a lysophospholipid. The release of arachidonic acid from membrane phospholipids by PLA is believed to be a key step in the control of eicosanoid production within the cell. The Bee Venom PLA2 Control was a 100 μg/ml solution of bee venom PLA2 is supplied as a positive control in the kit (Abcam kit catalog number ab133089). Substrate for MP was DQ Gelatin and assay run per EnzChek gelatinase assay manufacturers instructions. Venom MP activity was not optimized in initial experiments, but reaction rates were during experiments performed by an independently contracted laboratory. SP assay was performed using Nα-Benzoyl-L-arginine-7-amido-4-methylcoumarin hydrochloride. These kits were stored as specified if stored at −20° C. Unless otherwise specified, in the case of my experiments, only crude, unfractionated lyophilized venom purchased from Sigma or the Miami Serpentarium were used. Plate Setup: Manufacturers guidelines (paraphrased herein) were followed unless otherwise specified. Data Analysis: xcel per manufacturers recommendations. MP and SP assays were prepared and plated in the same manner as PLA2 assays except substrates and fluorophores were different. PBS was the buffer in the case of MP and SP assays and absorbance measured at 495 nm. Substrate for MP was DQ Gelatin and assay run per EnzChek gelatinase assay manufacturers instructions except that experiments were run, unconventionally at 37 C to estimate human body temperature and initial experiments for PLA2, MP activity and SP activity were not optimized for screening (e.g. extremely high doses of venom were used—10 mg/mL stock in all cases since the quality of the venom was unknown with final concentration of 0.444 mg/mL in the test wells). SP assay was performed using Na-Benzoyl-L-arginine-7-amido-4-methylcoumarin hydrochloride (Sigma). Specifics of contract laboratory technique vary from the present inventor's initial experiments in terms of venom and substrate optimization, plate size (384 instead of 96), volume and temperature and other factors including different operators such as those described immediately below, performed following the first pilot experiments and subsequently extended by a contract laboratory.
(§2) Small molecule screening and dose-response experiments took place in the Yale Center for Molecular Discovery. Instrumentation used when indicated included Tecan EVO (2), Tecan Aquarius, Matrix PlateMatePlus (2), Matrix PlateMate2×2 liquid transfer robots and Titertek and Thermo Multidrop liquid dispensers (7). PerkinElmer EnVision (3) and Tecan infinite M1000 (2) plate readers sensitively measure absorbance, fluorescence, fluorescence polarization and luminescence in 96- and 384-well plate formats. A GE InCell Analyzer 2200 imaging system acquires multicolor fluorescent and transmitted light images from plates. Piloting collections used in the first phases of screening were selected by the inventor or from libraries of known compounds and natural products available at the time of experiments on selected venoms including: NCC, GenPlus, Pharmakon, Bioactive lipids, Protease Inhibitors, Procured Drugs and FDA Approved Drugs libraries. The GenPlus (the NINDS Custom Collection) from MicroSource Discovery Systems contains 960 compounds. […]

[2] = system: E. carinatus venom MP; assay: HTS for inhibitors of E. carinatus venom MP; details: compounds approximately 10 μM/well
Experimental: as §1, §2

[3] = system: M. fulvius venom PLA2; assay: HTS for inhibitors of M. fulvius venom PLA2; details: compounds approximately 10 μM/well
[4] = system: snake venom metalloproteinase; assay: time course of metalloproteinase activity with excess venom (FIG. 2A); details: inhibitors 100 uM; venom 0.444 mg/mL
Experimental: Substrate for MP was DQ Gelatin and assay run per EnzChek gelatinase assay manufacturers instructions. Venom MP activity was not optimized in initial experiments, but reaction rates were during experiments performed by an independently contracted laboratory. SP assay was performed using Nα-Benzoyl-L-arginine-7-amido-4-methylcoumarin hydrochloride. […] Unless otherwise specified, in the case of my experiments, only crude, unfractionated lyophilized venom purchased from Sigma or the Miami Serpentarium were used. Plate Setup: Manufacturers guidelines (paraphrased herein) were followed unless otherwise specified. Data Analysis: xcel per manufacturers recommendations. MP and SP assays were prepared and plated in the same manner as PLA2 assays except substrates and fluorophores were different. PBS was the buffer in the case of MP and SP assays and absorbance measured at 495 nm. Substrate for MP was DQ Gelatin and assay run per EnzChek gelatinase assay manufacturers instructions except that experiments were run, unconventionally at 37 C to estimate human body temperature and initial experiments for PLA2, MP activity and SP activity were not optimized for screening (e.g. extremely high doses of venom were used—10 mg/mL stock in all cases since the quality of the venom was unknown with final concentration of 0.444 mg/mL in the test wells). SP assay was performed using Na-Benzoyl-L-arginine-7-amido-4-methylcoumarin hydrochloride (Sigma). Specifics of contract laboratory technique vary from the present inventor's initial experiments in terms of venom and substrate optimization, plate size (384 instead of 96), volume and temperature and other factors including different operators such as those described immediately below, performed following the first pilot experiments and subsequently extended by a contract laboratory.
Screening was carried out for inhibitors of venom sPLA2, MP and SPs. Stock solutions of venom at 10 mg/mL were used without typical dilution for assaying various inhibitors of sPLA2, MP and SPs. The final venom concentration in the assays was very high at 0.444 mg/mL.

[5] = biological target: snake venom metalloproteinase; assay: IC50 for MP inhibition on various venoms (Table 8, FIG. 20); details: general statement; values only in figures
[6] = system: Oxyuranus scutellatus venom serine protease; assay: inhibition of venom serine proteases in vitro (FIG. 14); details: elapid Oxyuranus scutellatus
Experimental: Substrate for MP was DQ Gelatin and assay run per EnzChek gelatinase assay manufacturers instructions. Venom MP activity was not optimized in initial experiments, but reaction rates were during experiments performed by an independently contracted laboratory. SP assay was performed using Nα-Benzoyl-L-arginine-7-amido-4-methylcoumarin hydrochloride. […] Unless otherwise specified, in the case of my experiments, only crude, unfractionated lyophilized venom purchased from Sigma or the Miami Serpentarium were used. Plate Setup: Manufacturers guidelines (paraphrased herein) were followed unless otherwise specified. […] MP and SP assays were prepared and plated in the same manner as PLA2 assays except substrates and fluorophores were different. PBS was the buffer in the case of MP and SP assays and absorbance measured at 495 nm. Substrate for MP was DQ Gelatin and assay run per EnzChek gelatinase assay manufacturers instructions except that experiments were run, unconventionally at 37 C to estimate human body temperature and initial experiments for PLA2, MP activity and SP activity were not optimized for screening (e.g. extremely high doses of venom were used—10 mg/mL stock in all cases since the quality of the venom was unknown with final concentration of 0.444 mg/mL in the test wells). SP assay was performed using Na-Benzoyl-L-arginine-7-amido-4-methylcoumarin hydrochloride (Sigma). […]

| SMILES | percental (%) reduction of MP activity [1] [%] | % Effect on E. carinatus venom MP [2] [%] | also measured |
| --- | --- | --- | --- |
| CCCCC[C@H](CC(=O)NO)C(=O)N[C@H](C(=O)N1CCC[C@H]1CO)C(C)C [Actinonin] | 92 |  |  |
| COC(=O)[C@H](Cc1ccccc1)NC(=O)[C@@H](N)CC(=O)O [Aspartame] (H-Asp-Phe-OMe) | 6.31 | 6 |  |
| COc1ccc(S(=O)(=O)N(Cc2cccnc2)[C@@H](C(=O)NO)C(C)C)cc1 [CGS 27023] | > 95 |  |  |
| CCN(CC)CC(=O)Nc1c(C)cccc1C [Lidocaine] |  |  | % effect (% inhibition) on M. fulvius venom PLA2 [3]: 11% |
| CC(=O)N[C@@H](CS)C(=O)O [NAC, N-Acetyl Cysteine] |  |  | inhibition of metalloproteinase activity (time course) [4]: varying levels of MP inhibition |
| N=C(N)c1ccc2cc(OC(=O)c3ccc(N=C(N)N)cc3)ccc2c1 [Nafamostat] |  | 28 | IC50s on various venoms [5]: micromolar range; activity against venom serine protease in vitro [6]: surprising activity |
| NC[C@H](O)c1ccc(O)c(O)c1 [Norepinephrine] |  | 28 |  |
| Cc1ccc(C(=O)Nc2ccc(S(=O)(=O)O)c3cc(S(=O)(=O)O)cc(S(=O)(=O)O)c23)cc1NC(=O)c1cccc(NC(=O)Nc2cccc(C(=O)Nc3cc(C(=O)Nc4ccc(S(=O)(=O)O)c5cc(S(=O)(=O)O)cc(S(=O)(=O)O)c45)ccc3C)c2)c1 [Suramin] |  |  | % effect (% inhibition) on M. fulvius venom PLA2 [3]: 21% |
